Experimental data as given in patent US20250129064A1, “PRODRUGS OF 2-BROMO-LSD (2-BRO[…] DIETHYLAMIDE)” (Terran Biosciences Inc., priority 2022, published 2025).
Several values for one entry are separate records, joined by “and”; a condition that tells them apart may be missing. Equal entries are not always repeated.

Test: Serial tail vein bleed PK study of 2-Br-LSD and 2-Br-LSD prodrugs in SD rats; 2-Br-LSD measured in plasma
Details: analyte 2-Br-LSD in plasma; for AUC(0-t): AUC0-last; for half-life: T½
[1] = 2-Br-LSD 1 mg/kg IV, male SD rat, individual animal
[2] = 2-Br-LSD 4 mg/kg oral, male SD rat, individual animal
[3] = male, Sprague-Dawley, rat, plasma, iv, 1 mg/kg, 2-Br-LSD 1 mg/kg IV, male SD rat, individual animal
[4] = male, Sprague-Dawley, rat, plasma, iv, 1 mg/kg, 2-Br-LSD 1 mg/kg IV, male SD rats, mean of 3
[5] = male, Sprague-Dawley, rat, plasma, po, 4 mg/kg, 2-Br-LSD 4 mg/kg oral, male SD rat, individual animal
[6] = male, Sprague-Dawley, rat, plasma, po, 4 mg/kg, 2-Br-LSD 4 mg/kg oral, male SD rats, mean of 3

SMILES: CCN(CC)C(=O)[C@@H]1C=C2c3cccc4[nH]c(Br)c(c34)C[C@H]2N(C)C1 [Example 2-Br-LSD, (6aR,9R)-5-bromo-N,N-diethyl-7-methyl-6,6a,8,9-tetrahydro-4H-indolo[4,3-fg]quinoline-9-carboxamide]
- AUC0-inf [1]: 269 ng·h/mL and 308 ng·h/mL
- AUC0-last [1]: 268 ng·h/mL and 304 ng·h/mL
- Cmax [1]: 658 ng/mL and 500 ng/mL
- Tlast [1]: 4.00 h
- T½ [1]: 37.7 min and 44.8 min
- Tlast (2-Br-LSD 1 mg/kg IV, male SD rats, mean of 3): 4.00 h
- AUC0-inf [2]: 1960 ng·h/mL and 1450 ng·h/mL
- AUC0-last [2]: 1430 ng·h/mL and 997 ng·h/mL
- Cmax [2]: 366.0 ng/mL and 209.0 ng/mL
- Tlast [2]: 7 h
- T½ [2]: 240 min
- Tlast (2-Br-LSD 4 mg/kg oral, male SD rats, mean of 3): 7 h
- AUC0-inf (male, Sprague-Dawley, rat, plasma, iv, 1 mg/kg, AUC0-inf, 2-Br-LSD 1 mg/kg IV, male SD rat, individual animal): 280 ng·h/mL
- AUC0-inf (male, Sprague-Dawley, rat, plasma, iv, 1 mg/kg, AUC0-inf, 2-Br-LSD 1 mg/kg IV, male SD rats, mean of 3): 286 ng·h/mL
- AUC(0-t) [3]: 278 ng·h/mL
- AUC(0-t) [4]: 283 ng·h/mL
- Cmax (male, Sprague-Dawley, rat, plasma, iv, 1 mg/kg, Cmax, 2-Br-LSD 1 mg/kg IV, male SD rat, individual animal): 577 ng/mL
- Cmax (male, Sprague-Dawley, rat, plasma, iv, 1 mg/kg, Cmax, 2-Br-LSD 1 mg/kg IV, male SD rats, mean of 3): 578 ng/mL
- half-life [3]: 44.3 min
- half-life [4]: 42.2 min
- AUC0-inf (male, Sprague-Dawley, rat, plasma, po, 4 mg/kg, AUC0-inf, 2-Br-LSD 4 mg/kg oral, male SD rat, individual animal): 1780 ng·h/mL
- AUC0-inf (male, Sprague-Dawley, rat, plasma, po, 4 mg/kg, AUC0-inf, 2-Br-LSD 4 mg/kg oral, male SD rats, mean of 3): 1730 ng·h/mL
- AUC(0-t) [5]: 1350 ng·h/mL
- AUC(0-t) [6]: 1260 ng·h/mL
- Cmax (male, Sprague-Dawley, rat, plasma, po, 4 mg/kg, Cmax, 2-Br-LSD 4 mg/kg oral, male SD rat, individual animal): 338 ng/mL
- Cmax (male, Sprague-Dawley, rat, plasma, po, 4 mg/kg, Cmax, 2-Br-LSD 4 mg/kg oral, male SD rats, mean of 3): 304 ng/mL
- half-life [5]: 216 min
- half-life [6]: 222 min
